The experiment relates to CD2F1 mice, L1210 leukemia ip, survival T/C. In words: NCI In Vivo Anticancer Drug Screen. Data for tumor model L1210 Leukemia (intraperitoneal) in CD2F1 (CDF1) mice. To be noted: endpoint: mean survival time, higher = longer survival. In outline:
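Implant tumor; dose compound or vehicle; measure endpoint in both groups; report treated divided by control.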

Where [1] appears, read: dose: 100.0 mg/kg/injection, schedule: Q01DX009 (ip), vehicle: saline with Tween-80.
Setting [2] is: dose: 100.0 mg/kg/injection, schedule: Q04DX003 (ip), vehicle: saline with Tween-80.
Where [3] appears, read: dose: 200.0 mg/kg/injection, schedule: Q01DX009 (ip), vehicle: saline with Tween-80.
Where [4] appears, read: dose: 200.0 mg/kg/injection, schedule: Q04DX003 (ip), vehicle: saline with Tween-80.
Setting [5] is: dose: 400.0 mg/kg/injection, schedule: Q04DX003 (ip), vehicle: saline with Tween-80.
Setting [6] is: dose: 100.0 mg/kg/injection, schedule: Q01DX001 (ip), vehicle: Klucel (hydroxypropylcellulose) (HPC).
Setting [7] is: dose: 200.0 mg/kg/injection, schedule: Q01DX001 (ip), vehicle: Klucel (hydroxypropylcellulose) (HPC).
Setting [8] is: dose: 400.0 mg/kg/injection, schedule: Q01DX001 (ip), vehicle: Klucel (hydroxypropylcellulose) (HPC).
[9] abbreviates: dose: 100.0 mg/kg/injection, schedule: Q04DX002 (ip), vehicle: saline with Tween-80.

Values joined by “and” are separate entries in the source; they are usually repeats but may differ in a detail not shown here. Identical values can stand only once. Toxic doses and inconclusive results are not listed.

For the molecule `COc1ccccc1NC(C)=O`, the T/C is 96 % of control under setting [1]; 101 % of control under setting [2]; 98 % of control under setting [3]; 96 % of control under setting [4]; 96 % of control (dose: 400.0 mg/kg/injection, schedule: Q01DX009 (ip), vehicle: saline with Tween-80); 101 % of control under setting [5].
Regarding `N#Cc1nc(/C=C\c2ccc3c(c2)OCO3)cnc1N`, the T/C runs as follows: under setting [6], 90 % of control; under setting [7], 90 % of control; under setting [8], 90 % of control.
As for `FC(F)(F)c1ccc(Cl)c(N=C=S)c1`, the T/C runs as follows: under setting [9], 104 % of control; (dose: 200.0 mg/kg/injection, schedule: Q04DX002 (ip), vehicle: saline with Tween-80) 93 % of control.
With `CCCSCC(CSCCC)(CSCCC)CSCCC`, the T/C reads like this: (dose: 100.0 mg/kg/injection, schedule: Q01DX001 (ip), vehicle: saline with Tween-80) 107 % of control; (dose: 200.0 mg/kg/injection, schedule: Q01DX001 (ip), vehicle: saline with Tween-80) 111 % of control; (dose: 400.0 mg/kg/injection, schedule: Q01DX001 (ip), vehicle: saline with Tween-80) 101 % of control.
Take `[N-]=C=S.[N-]=C=S.[NH-]N.[NH-]N.[Zn]`: the T/C (dose: 25.0 mg/kg/injection, schedule: Q04DX002 (ip), vehicle: saline with Tween-80) is 96 % of control; the T/C (dose: 50.0 mg/kg/injection, schedule: Q04DX002 (ip), vehicle: saline with Tween-80) was 100 % of control; the T/C under setting [9] was 102 % of control.
For the molecule `O=C(O)CCc1nc2ccccc2c(=O)n1Cc1ccccc1`, the T/C was 106 % of control (dose: 100.0 mg/kg/injection, schedule: Q04DX003 (ip), vehicle: Klucel (hydroxypropylcellulose) (HPC)); 98 % of control (dose: 200.0 mg/kg/injection, schedule: Q04DX003 (ip), vehicle: Klucel (hydroxypropylcellulose) (HPC)); 95 % of control (dose: 400.0 mg/kg/injection, schedule: Q04DX003 (ip), vehicle: Klucel (hydroxypropylcellulose) (HPC)).
With `COc1ccc2c(c1)CCCC2=O`, the T/C by setting is: under setting [1], 102 % of control; under setting [2], 90 % of control; under setting [3], 94 % of control; under setting [4], 93 % of control; under setting [5], 98 % of control.
Turning to `O=C(c1ccccc1)C1CC1c1ccccc1` (stereo unspecified), the T/C was 101 % of control (dose: 100.0 mg/kg/injection, schedule: Q01DX009 (ip), vehicle: saline); 90 % of control (dose: 200.0 mg/kg/injection, schedule: Q01DX009 (ip), vehicle: saline); 94 % of control (dose: 400.0 mg/kg/injection, schedule: Q01DX009 (ip), vehicle: saline).
`CCOC(=O)C(CC(C)C)NC(=O)C(Cc1ccc(N(CCCl)CCCl)cc1)NC(C)=O` (stereo unspecified): the T/C was 95 % of control (dose: 0.5 mg/kg/injection, schedule: Q01DX009 (ip), vehicle: saline); 92 % of control (dose: 1.0 mg/kg/injection, schedule: Q01DX009 (ip), vehicle: saline); 100 % of control (dose: 1.0 mg/kg/injection, schedule: Q04DX003 (ip), vehicle: saline with Tween-80); 102 % of control [middle of 4 runs] (dose: 2.0 mg/kg/injection, schedule: Q01DX001 (ip), vehicle: saline with Tween-80); 92 % of control and 95 % of control (dose: 2.0 mg/kg/injection, schedule: Q01DX009 (ip), vehicle: Klucel (hydroxypropylcellulose) (HPC)); 94 % of control (dose: 2.0 mg/kg/injection, schedule: Q01DX009 (ip), vehicle: saline). The T/C runs as follows: (dose: 2.0 mg/kg/injection, schedule: Q04DX003 (ip), vehicle: saline with Tween-80) 96 % of control and 97 % of control and 105 % of control; (dose: 4.0 mg/kg/injection, schedule: Q01DX001 (ip), vehicle: saline with Tween-80) 102 % of control [middle of 4 runs]; (dose: 4.0 mg/kg/injection, schedule: Q01DX009 (ip), vehicle: Klucel (hydroxypropylcellulose) (HPC)) 94 % of control and 95 % of control; (dose: 4.0 mg/kg/injection, schedule: Q01DX009 (ip), vehicle: saline) 101 % of control; (dose: 4.0 mg/kg/injection, schedule: Q04DX003 (ip), vehicle: saline with Tween-80) 105 % of control [middle of 4 runs]; (dose: 8.0 mg/kg/injection, schedule: Q01DX001 (ip), vehicle: saline with Tween-80) 100 % of control and 98 % of control and 102 % of control. Besides, the T/C runs as follows: (dose: 8.0 mg/kg/injection, schedule: Q01DX009 (ip), vehicle: Klucel (hydroxypropylcellulose) (HPC)) 94 % of control and 105 % of control; (dose: 8.0 mg/kg/injection, schedule: Q01DX009 (ip), vehicle: saline) 110 % of control and 95 % of control and 103 % of control; (dose: 8.0 mg/kg/injection, schedule: Q04DX003 (ip), vehicle: saline with Tween-80) 105 % of control [middle of 5 runs]; (dose: 16.0 mg/kg/injection, schedule: Q01DX001 (ip), vehicle: saline with Tween-80) 102 % of control [middle of 4 runs]; (dose: 16.0 mg/kg/injection, schedule: Q01DX009 (ip), vehicle: Klucel (hydroxypropylcellulose) (HPC)) 97 % of control and 111 % of control; (dose: 16.0 mg/kg/injection, schedule: Q01DX009 (ip), vehicle: saline) 120 % of control and 100 % of control and 121 % of control. Besides, the T/C (dose: 16.0 mg/kg/injection, schedule: Q04DX003 (ip), vehicle: saline) was 110 % of control; the T/C (dose: 32.0 mg/kg/injection, schedule: Q01DX001 (ip), vehicle: saline with Tween-80) was 104 % of control [middle of 4 runs]; the T/C (dose: 32.0 mg/kg/injection, schedule: Q01DX001 (ip), vehicle: saline) is 105 % of control; the T/C (dose: 32.0 mg/kg/injection, schedule: Q01DX009 (ip), vehicle: Klucel (hydroxypropylcellulose) (HPC)) is 114 % of control; the T/C (dose: 32.0 mg/kg/injection, schedule: Q01DX009 (ip), vehicle: saline) was 101 % of control; the T/C (dose: 32.0 mg/kg/injection, schedule: Q04DX003 (ip), vehicle: saline) is 118 % of control. Moreover, the T/C is, setting by setting: (dose: 64.0 mg/kg/injection, schedule: Q01DX001 (ip), vehicle: saline with Tween-80) 114 % of control and 108 % of control and 98 % of control; (dose: 64.0 mg/kg/injection, schedule: Q01DX001 (ip), vehicle: saline) 211 % of control; (dose: 64.0 mg/kg/injection, schedule: Q01DX009 (ip), vehicle: Klucel (hydroxypropylcellulose) (HPC)) 119 % of control; (dose: 64.0 mg/kg/injection, schedule: Q01DX009 (ip), vehicle: saline) 90 % of control; (dose: 128.0 mg/kg/injection, schedule: Q01DX001 (ip), vehicle: saline with Tween-80) 118 % of control and 104 % of control and 106 % of control; (dose: 128.0 mg/kg/injection, schedule: Q01DX009 (ip), vehicle: saline) 95 % of control and 105 % of control. Also, the T/C (dose: 128.0 mg/kg/injection, schedule: Q04DX003 (ip), vehicle: saline with Tween-80) was 120 % of control and 92 % of control; the T/C (dose: 128.0 mg/kg/injection, schedule: Q04DX003 (ip), vehicle: saline) was 170 % of control; the T/C (dose: 256.0 mg/kg/injection, schedule: Q01DX001 (ip), vehicle: saline) is 152 % of control; the T/C (dose: 256.0 mg/kg/injection, schedule: Q01DX009 (ip), vehicle: saline) was 103 % of control; the T/C (dose: 256.0 mg/kg/injection, schedule: Q04DX003 (ip), vehicle: saline with Tween-80) was 94 % of control and 107 % of control; the T/C (dose: 256.0 mg/kg/injection, schedule: Q04DX003 (ip), vehicle: saline) is 120 % of control. Further, the T/C (dose: 512.0 mg/kg/injection, schedule: Q01DX009 (ip), vehicle: saline) was 117 % of control.
Consider `CC(C)(C)OC(=O)NCCCC(N)C(=O)O` (stereo unspecified), for which the T/C reads like this: under setting [2], 92 % of control; under setting [4], 94 % of control; under setting [5], 94 % of control.
In the case of `BrC1=C(c2ccccc2)C2CCCCC2C1(Br)c1ccccc1` (stereo unspecified), the T/C is 98 % of control under setting [6], 102 % of control under setting [7] and 102 % of control under setting [8].
On to `CN(Cc1cnc2nc(N)nc(N)c2n1)c1ccc(C(=O)NC(CCC(=O)NCc2ccccc2)C(=O)O)cc1` (stereo unspecified), for which the T/C reads like this: (dose: 5.0 mg/kg/injection, schedule: Q01DX009 (ip), vehicle: sodium bicarbonate) 108 % of control; (dose: 10.0 mg/kg/injection, schedule: Q01DX009 (ip), vehicle: sodium bicarbonate) 112 % of control.
As to `CC(=O)OC1C=C2CCC3C(CCC4(C)C(OC(C)=O)CCC34)C2(C)CC1` (stereo unspecified), the T/C is, setting by setting: (dose: 12.5 mg/kg/injection, schedule: Q04DX003 (ip), vehicle: Klucel (hydroxypropylcellulose) (HPC)) 106 % of control; (dose: 25.0 mg/kg/injection, schedule: Q04DX003 (ip), vehicle: Klucel (hydroxypropylcellulose) (HPC)) 103 % of control; (dose: 50.0 mg/kg/injection, schedule: Q04DX003 (ip), vehicle: Klucel (hydroxypropylcellulose) (HPC)) 106 % of control.
